Source: patent US4374843A, “2-Guanidino-4-heteroarylthiazoles” (Pfizer Inc., priority 1981, dated 1983)
Where a name gives a salt, the structure may show the parent alone.

Key:
H2 -receptor = target: T1, H2 -receptor (Cavia porcellus, UniProt P47747); assay: Histamine-H2 antagonist activity in isolated guinea pig right atria; format: cell-based; conditions: histamine dose-response curve in presence and absence of antagonist, 32°; for Kb: Krebs-Henseleit buffer pH 7.4, read-out: pA2 (apparent dissociation constant of the H2-receptor antagonist) (converted)
T1 construct: the heart removed and the right atria dissected free; from tissue; host or cells: isolated guinea pig right atria
Description: The histamine-H2 antagonist activity of compounds of the present invention was determined by the following procedure:
Guinea pigs are killed rapidly with a blow to the head, the heart removed and the right atria dissected free. Atria are suspended, isometrically, in a temperature-controlled (32°±2°) tissue bath (10 ml containing oxygenated (95% O2; 5% CO2) Krebs-Henseleit buffer (pH 7.4) and are allowed to stabilize approximately one hour during which time the tissue bath is flushed several times. Individual atrial contractions are followed with a force-displacement transducer connected to a cardiotachometer and Grass polygraph recorder. After obtaining a dose-response curve to histamine, the bath containing each atrium is flushed several times with fresh buffer and the atria re-equilibrated to basal rates. Following the return to basal rate, test compounds are added at selected final concentrations and the histamine dose-response curve is again determined in the presence of antagonist. Results are expressed as dose-ratios, the ratio of histamine concentrations required to produce one-half of maximal stimulation in the presence and absence of antagonist, and the apparent dissociation constant of the H2 -receptor antagonist pA2, is determined.

Heidenhain pouch dogs = assay: Gastric acid antisecretory activity in pentagastrin-stimulated Heidenhain pouch dogs; format: in vivo, dog; conditions: Canis lupus familiaris, iv, 1.5 h; 1 mg/kg intravenously, 90 min after start of pentagastrin infusion; lowest acid output after drug vs mean acid output immediately before drug; conscious fasted dogs; read-out: inhibited gastric acid secretion
Description: The gastric acid antisecretory activity of compounds of the present invention was determined in overnight fasted, conscious Heidenhain pouch dogs. Pentagastrin (Pentavlon-Ayerst was used to stimulate acid output by continuous infusion into a superficial leg vein at doses earlier determined to stimulate near maximal acid output from the gastric pouch. Gastric juice was collected at 30 minute intervals following the start of a pentagastrin infusion and measured to the nearest 0.1 ml. Ten collections were taken for each dog during an experiment. Acid concentration was determined by titrating 1.0 ml of gastric juice to pH 7.4 with 0.1 N sodium hydroxide using an Autoburette and a glass electrode pH meter (Radiometer).
Drug or vehicle was given intraveneously 90 minutes following the start of the pentagastrin infusion, at a dose of 1 mg/kg. Gastric acid antisecretory effects were calculated by comparing the lowest acid output after drug administration with the mean acid output immediately before drug.

T1 sequence (P47747 whole entry): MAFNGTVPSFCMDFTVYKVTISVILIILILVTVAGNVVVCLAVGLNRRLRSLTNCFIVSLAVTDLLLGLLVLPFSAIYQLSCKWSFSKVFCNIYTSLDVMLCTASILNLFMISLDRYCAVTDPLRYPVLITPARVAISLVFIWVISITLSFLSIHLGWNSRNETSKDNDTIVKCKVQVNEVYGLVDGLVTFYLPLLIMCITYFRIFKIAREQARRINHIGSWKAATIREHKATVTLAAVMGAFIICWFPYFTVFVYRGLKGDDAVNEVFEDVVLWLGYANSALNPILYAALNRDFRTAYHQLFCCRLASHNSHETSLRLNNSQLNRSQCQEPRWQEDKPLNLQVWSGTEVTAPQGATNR

Structure (SMILES)	Kb (H2 -receptor)	inhibition at 1 mg/kg (Heidenhain pouch dogs)	pA2 (apparent dissociation constant of the H2-receptor antagonist) (H2 -receptor; Krebs-Henseleit buffer pH 7.4)
N=C(N)Nc1nc(-c2csc(N)n2)cs1 [Example 4, 2-Guanidino-4-(2-amino-4-thiazolyl)thiazole dihydrobromide]	< 2 µM	≥ 15%	–
N=C(N)Nc1nc(-c2cscn2)cs1 [Example 5, 2-Guanidino-4-(4-thiazolyl)thiazole]	< 2 µM	≥ 15%	–
CNc1nc(-c2csc(NC(=N)N)n2)cs1 [Example 6, 2-Guanidino-4-(2-N-methylamino-4-thiazoyl)thiazole]	< 2 µM	≥ 15%	–
CC(=O)Nc1nc(-c2csc(NC(=N)N)n2)cs1 [Example 7, 2-Guanidino-4-(2-N-acetylamino-4-thiazoyl)thiazole]	< 2 µM	≥ 15%	–
N=C(N)Nc1nc(-c2nc(N)n[nH]2)cs1 [Example 11, 2-Guanidino-4-(3-amino-5-1,2,4-triazolyl)thiazole]	–	≥ 15%	–
Cc1n[nH]c(-c2csc(NC(=N)N)n2)n1 [Example 13, 2-Guanidino-4-(3-methyl-5-1,2,4-triazolyl)thiazole hemihydrate]	–	≥ 15%	–
CCCc1n[nH]c(-c2csc(NC(=N)N)n2)n1 [Example 15, 2-Guanidino-4-(3-propyl-5-1,2,4-triazolyl)thiazole hemihydrate]	< 2 µM	≥ 15%	–
CCc1n[nH]c(-c2csc(NC(=N)N)n2)n1 [Example 17, 2-Guanidino-4-(3-ethyl-5-1,24-triazolyl)thiazole]	< 2 µM	≥ 15%	–
N=C(N)Nc1nc(-c2c[nH]c(N)n2)cs1 [Example 20, 2-Guanidino-4-(2-amino-4-imidazolyl)thiazole]	–	≥ 15%	–
CNc1nc(-c2csc(NC(=N)N)n2)c[nH]1 [Example 21, 2-Guanidino-4-(2-N-methylamino-4-imidazoyl)thiazole dihydrochloride]	< 2 µM	≥ 15%	–
CCNc1nc(-c2csc(NC(=N)N)n2)c[nH]1 [Example 22, 2-Guanidino-4-(2-N-ethylamino-4-imidazoyl)thiazole dihydrochloride]	< 2 µM	≥ 15%	–
CCCNc1nc(-c2csc(NC(=N)N)n2)c[nH]1 [Example 23, 2-(Guanidino-4-(2-N-n-propylamino-4-imidazoyl)thiazoledihydrochloride]	< 2 µM	≥ 15%	–
CC(C)Nc1nc(-c2csc(NC(=N)N)n2)c[nH]1 [Example 24, 2-Guanidino-4-(2-N-i-propylamino-4-imidazoyl)thiazole dihydrochloride]	< 2 µM	≥ 15%	–
CCCCNc1nc(-c2csc(NC(=N)N)n2)c[nH]1 [Example 25, 2-Guanidino-4-(2-N-n-butylamino-4-imidazoyl)thiazole dihydrochloride]	< 2 µM	≥ 15%	–
N=C(N)Nc1nc(-c2c[nH]c(NCc3ccccc3)n2)cs1 [Example 26, 2-Guanidino-4-(2-N-benzylamino-4-imidazoyl)thiazole dihydrochloride]	< 2 µM	≥ 15%	–
N=C(N)Nc1nc(-c2c[nH]c(NCCc3ccccc3)n2)cs1 [Example 27, 2-Guanidino-4-(2-N-phenethylamino-4-imidazoyl)thiazole dihydrochloride]	< 2 µM	≥ 15%	–
CC(=O)Nc1nc(-c2csc(NC(=N)N)n2)c[nH]1 [Example 28, 2-Guanidino-4-(2-N-acetamido-4-imidazoyl)thiazole]	< 2 µM	≥ 15%	–
N=C(N)Nc1nc(-c2c[nH]cn2)cs1 [Example 31, 2-Guanidino-4-(4-imidazoyl)thiazole hydrobromide]	–	≥ 15%	–
Cc1ncc(-c2csc(N=C(N)N)n2)[nH]1 [Example 37, 2-Guanidino-4-(2-methyl-4-imidazolyl)thiazole]	< 2 µM	≥ 15%	–
Cc1nc[nH]c1-c1csc(NC(=N)N)n1 [Example 41, 2-Guanidino-4-(4-methyl-5-imidazolyl)thiazole hydrobromide]	< 2 µM	≥ 15%	–
Cc1nc(C)c(-c2csc(NC(=N)N)n2)[nH]1 [Example 45, 2-Guanidino-4-(2,4-dimethyl-4-imidazolyl)thiazole hydrobromide hemihydrate]	–	≥ 15%	greater than 5.7
N=C(N)Nc1nc(-c2c[nH]c(Nc3ccccc3)n2)cs1 [Example 46, 2-Guanidino-4-(2-N-phenylamino-4-imidazolyl)thiazole]	< 2 µM	–	–
N=C(N)Nc1nc(-c2c[nH]c(CO)n2)cs1 [Example 50, 2-Guanidino-4-(2-hydroxymethyl-4-imidazolyl)thiazole hydrobromide]	< 2 µM	≥ 15%	–
